Legend:
[1] = test system: hypothalamic proteins; assay: Hypothalamic proteome analysis after i.c.v. injection; format: in vivo, rat
Method: Alpha-MSH and desacetyl-α-MSH both couple melanocortin receptors to either adenylyl cyclase or calcium-signalling pathways in vitro. To characterise the signal transduction pathways engaged by α-MSH and desacetyl-α-MSH in vivo, rats received an intracerebroventricular (i.c.v.) injection of either phosphate buffered saline (PBS), α-MSH or desacetyl-α-MSH. Three hours later, food intake was measured and hypothalamic tissues were collected for 2D gel electrophoresis-based proteome analysis.
Adult male Wistar rats (50-60 days old, 230-260 g at the beginning of the experiment) were maintained in individual cages under controlled temperature (23° C.) and reverse lighting (1000-2200 lights off). Standard laboratory chow (NZ Stockfeed Ltd) and tap water were available ad libitum during the adaptation phase. During this time animals were handled daily to minimize the effects of stress on food intake during experiments. Body weight was measured daily before, and one week after cannulation. Any animal showing signs of illness, such as weight loss, poor grooming, or decreased activity, was removed from the study. All animal procedures undertaken were approved by the Animal Ethics Committee of the University of Auckland.
After 7 days of adaptation, animals were subject to cannula placement surgery under 3% halothane/O2 anaesthesia. A permanent lateral ventricle infusion cannula (6-mm 21 gauge) was placed on top of the dura at 7.5 mm anterior from stereotaxic zero, 1.5 mm to the right of the mid-sagittal line, and secured to the skull with dental cement. Animals were allowed at least 7 days to recover from surgery before injections.
Rats were fasted overnight before the day of experiment.
Under 3% halothane/O2 anaethesia rats were infused icv through a 12-mm 27-gauge needle, connected to 20-cm length tubing attached to a syringe. Infusions were performed in the early dark phase between 1000 and 1130 hr using motor driven infusion pumps at a rate of 1.0 μl/min over 10 min. Movement of a 0.2 ml air-space introduced between the 0.9% saline solution filling the PE10 tubing-syringe system and the test solution served as an indicator of a successful infusion. At the end of each experiment animals were euthanised by pentobarbital overdose, and cannula placement was confirmed by visual inspection of the cannula tip location within the brain ventricular system.
Only one of these proteins was common to α-MSH and desacetyl-α-MSH. A combination of Reverse-phase HPLC followed by Edman protein sequencing, and peptide mass fingerprinting technique using MALDI-TOF mass spectrometry were used to identify the proteins of interest. The proteomic data provide a snap-shot of the protein expression patterns in the hypothalamus 3 hours post i.c.v. administration of the melanocortin peptides.

[2] = test system: 3T3 L1 adipocytes; assay: Triglyceride release from 3T3 L1 adipocytes (peptide stimulation assay); format: cell-based, murine; conditions: 4 hours, 2 assays combined
Method: (§1) • 2.1 The objective of this study was to determine the effects of a-MSH and desacetyl a-MSH on leptin and triglyceride production in murine 3T3 L1 adipocytes. • 2.2 Pre-adipocytes were seeded in 6-well plates and 2 days post confluence (Day 2) were differentiated with […] indomethacin+5 ug/mL insulin (described in previous documents). • 2.3 On Day 13 adipocytes were stimulated with 4 doses each of a-MSH and desacetyl a-MSH (or no peptide added) for 4 hours. • 2.4 Medium was removed from the wells and leptin and triglyceride levels measured. • 2.5 Intracytoplasmic lipid accumulation was measured by staining with Oil red O.
(§2) • 4.1 Medium=a-MEM+0.5% BSA (100 mL a-MEM+0.5 g BSA) • 4.2 Doses of a-MSH and da-MSH (stocks in −80° C. freezer=1 ug/ul), using MW of a-MSH. • 1 M=1665 g/L=1665 mg/mL • 1 mM=1.665 mg/mL • 1 uM=1.665 ug/mL • 1.665 ug/mL=3.3 ug/2 mL in each well • 1/10 dilution of 1 ug/ul (stock)=0.1 ug/ul. 33 ul=3.3 ug. • Prepare 1/10 dilution of freezer stock (1 ug/ul) to make 0.1 ug/ul, using a-MEM+0.5% BSA as diluent. • Make 3 serial dilutions of 1/10 to add 33 ul to each well in 6-well plate. • Doses are in triplicate wells, so require 3×33=99 ul for each dose.
• 5.1 Assay is performed on Day 14 after initiation of cell differentiation. […]

[3] = test system: 3T3 L1 adipocytes; assay: Leptin production in differentiated 3T3 L1 adipocytes (peptide stimulation assay); format: cell-based, murine; conditions: for mean leptin level: one assay; for Leptin Response, Mean: 4 hours, 2 assays combined
Method: as §1, §2
• 5.1 Assay is performed on Day 14 after initiation of cell differentiation. On day prior to stimulation assay, replace growth medium+insulin with medium prepared in 4.1 (a-MEM+0.5% BSA) and return plates to incubator. • 5.2 On Day of assay prepare peptide solutions as in 4.2 and IBMX as in 4.3. • 5.3 Replace medium with the same medium supplemented with 1 mM IBMX (as in 4.3) and allow cells to equilibrate in incubator for 10 minutes. • 5.4 Add increasing concentrations of peptides (or none), 33 ul per well, swirl gently to mix, and place plates in incubator for 4 hours. • 5.5 At the end of the incubation remove media from wells and store triplicate aliquots in −20° C. freezer for measurement of leptin and triglycerides. • 5.6 Stain adipocytes in wells with Oil Red O as in “Oil Red O Staining of Adipocyte” document. • 5.7 After eluting the stain, remove cells from wells as in 6.0 for measuring total protein.
Leptin Assays Quantikine M kit (R & D Systems Inc, UK # MOB00 Abingdon, Oxon) and DSL kit (DSL #10-24100, Australia PTY Ltd, NSW, Australia) were used. […] The Quantikine M kit is preferred as it is more sensitive and precise.

[4] = hypothalamus, 3 h after i.c.v. injection, rats

Question: With “SYSMEHFRWGKPV [desacetyl-α-MSH, non-acetylated form of α-MSH, obtained from Bachem]” as the sequence, how does the “number of hypothalamic proteins with expression significantly different from PBS” value ([1]; 3 hours post i.c.v., p<0.05) read?
Answer: The value was 20.

Question: What about the “Cu/Zn superoxide dismutase (p1347), effect compared to control” value [1, 4] of the same sequence?
Answer: Its value is 1.4 fold decrease.

Question: And the “Protein disulfide isomerase (p261), effect compared to control” value [1, 4]?
Answer: The value was 1.4 fold decrease.

Question: And the “gamma-enolase (p1438), effect compared to control” value [1, 4]?
Answer: The value was 1.7 fold decrease.

Question: What about the “glyceraldehyde-3-phosphate-dehydrogenase (p1210), effect compared to control” value [1, 4] of the same sequence?
Answer: The value was 1.4 fold decrease.

Question: What about the “phosphatidylethanolamine binding protein (p1267), effect compared to control” value [1, 4] of the same sequence?
Answer: Its value is 2.5 fold decrease.

Question: What about the “triosephosphate isomerase (p1521), effect compared to control” value [1, 4] of the same sequence?
Answer: Its value is 1.4 fold decrease.

Question: What about the “TRIGLYCERIDE RESPONSE, MEAN” value ([2]; 100 nM) of the same sequence?
Answer: Its value is 111.4 % OF CONTROL.

Question: And the “TRIGLYCERIDE RESPONSE, MEAN” value ([2]; 1000 nM)?
Answer: The value was 110.0 % OF CONTROL.

Question: And the “effect on leptin production” value ([3]; 1 nM single peptide)?
Answer: Its value is “appears to reduce leptin production”.

Question: What about the mean leptin level ([3]; 1 nM single peptide) of the same sequence?
Answer: The mean leptin level was 480.4 pg/mL.

Question: And the “Leptin Response, Mean” value ([3]; 1 nM)?
Answer: Its value is 95.4 % of control.

Question: What about the “Leptin Response, Mean” value ([3]; 10 nM) of the same sequence?
Answer: Its value is 96.3 % of control.

Question: And the mean leptin level ([3]; 100 nM single peptide)?
Answer: Its mean leptin level is 528.0 pg/mL.

Question: And the “Leptin Response, Mean” value ([3]; 100 nM)?
Answer: The value was 97.7 % of control.

Question: What about the “Leptin Response, Mean” value ([3]; 1000 nM) of the same sequence?
Answer: The value was 109.4 % of control.
